Patent US20010006667A1, “USE AND COMPOSITION OF AN ANTI-SEXUALLY TRANSMITTED DISEASES FORMULATION” (priority 1994, published 2001)

Test system: HIV LAV1 BRU retrovirus clone
Test: Syncytia formation in HT4LacZ cells infected with an HIV viral suspension pre-mixed with test substance
Format: cell-based
Method: The formulations were prepared according to the description discussed above, except that the F-Po was prepared with about 2% polycarbophil, no N-9 and about a 1% concentration of Carbomer 934P, rather than 0.5%, and the difference (2%) was made up with additional water.
A viral blank was used as control, and AZT was used for a positive control. Each formulation was set up as an aqueous suspension of a particular concentration. 500 μl. aliquots of viral suspension were separately mixed with 50 ,μl. of each of the test solutions. After 30 minutes, 55 μl. of each of these mixtures were tested directly on HT4LacZ cells in a well also containing DEAE dextran. During the culturing period, the virus supplies the tat gene missing in HT4LacZ cells, leading to LacZ gene transactivation coding for β-galactosidase, indicated by a histochemical coloration. After 72 hours of culturing, infection is stopped by addition of a fixator for ten minutes. After two PBS washes, the colorant is added for ninety minutes. After syncytia (giant multi-nucleated cells, formed by many cells fusing together when infected with HIV) outbreak, the colorant is replaced with water. Observation is performed with an optical microscope, yielding the following results in Table 1: […]

Molecule | Avg. # Syncytia per well (final conc. 10^−5M) | Percent Reduction (of syncytia vs viral reference) (final conc. 10^−5M) | Total # Syncytia (final conc. 10^−5M) | viral infection remaining, % of that exhibited by the HIV viral suspension (FIG. 1) (0.1 μg/ml) | viral infection remaining, % of that exhibited by the HIV viral suspension (FIG. 1) (1 μg/ml) | Avg. # Syncytia per well (final conc. 0.10 μg/ml) | Percent Reduction (of syncytia vs viral reference) (final conc. 0.10 μg/ml) | Total # Syncytia (final conc. 0.10 μg/ml) | Avg. # Syncytia per well (final conc. 1.0 μg/ml) | Percent Reduction (of syncytia vs viral reference) (final conc. 1.0 μg/ml) | Total # Syncytia (final conc. 1.0 μg/ml)
Cc1cn([C@H]2C[C@H](N=[N+]=[N-])[C@@H](CO)O2)c(=O)[nH]c1=O [AZT] | 0 | 100% | 0 | – | – | – | – | – | – | – | –
nonoxynol-9 [N-9] | – | – | – | 72% | 36% | 11.5 | 28% | 46 | 5.75 | 64% | 23
